From patent US9387197B2, “Methods for treating conditions such as dystonia and post-stroke spasticity with clonidine” (Warsaw Orthopedic, Inc., priority 2008, dated 2016)

Tested on: Rat Chronic Constriction Injury Model
Conditions: FIG. 4; days 8-64
Protocol: A 2-month chronic constriction injury (CCI) model of neuropathic pain was used to evaluate different formulations of clonidine encapsulated in bioerodible polymers compared to clonidine given subcutaneously (SC). Different formulations as provided in Table 5 below were evaluated for reducing pain-associated behaviors: Thermal paw withdrawal latency was evaluated at baseline, 7, 14, 21, 28, 35, 42, 49, 56 and 64 days post-operatively, while mechanical threshold was evaluated at 8, 15, 22, 29, 36, 43, 50, 57 and 64 days post-operatively.
The inventors evaluated the efficacy of a five month Clonidine/Polymer Drug Depot in the Rat Chronic Constriction Injury Model. The animal model was the Bennett Model (Wistar rat). The purpose: To determine whether a five month polymer clonidine-eluting depot can improve pain associated behavioral responses in a rat model of neuropathic pain.
Experimental Design: Four loose chromic gut ligatures, 1 mm apart, were tied around the common sciatic nerve at mid-thigh. Each animal received treatment of a test or control article according to the dosing described in Table 5.
The inventors have conducted the present study for a period of 64 days and have employed the following two tests: (1) the Hargreaves test; and (2) the von Frey test. […]

`Clc1cccc(Cl)c1N=C1NCCN1` [clonidine, 2,6-dichloro-N-2-imidazolidinyldenebenzenamine] was tested, and the “pain behavioral response, mechanical threshold (mechanical allodynia), compared to unloaded polymer depots” value was “reduced the behavioral response”.
